These results are taken from patent publication US10258599B2, “Compounds for use in the prevention or treatment of cancer” (SEMMELWEIS UNIVERSITY, priority 2014, dated 2019).

This assay relates to catecholaminergic neurons. The assay can be described thus: Shuttle box: antagonism of tetrabenazine-induced learning deficit (conditioned avoidance reflex). It counts as in vivo, rat. Here is the method: In a modified version of the shuttle box the acquisition of a two-way conditioned avoidance reflex (CAR) was analyzed during 5 consecutive days. The rat was put in a box divided inside into two parts by a barrier with a small gate in the middle, and the animal was trained to cross the barrier under the influence of a conditioned stimulus (CS, light flash). […] One trial consisted of 10 s intertrial interval, followed by 20 s CS. The last 5 s of CS overlaped the 5 s US. At each learning session, the number of CARs, EFs and intersignal reactions (IRs) are automatically counted and evaluated by multi-way ANOVA.
Tetrabenazine-treatment (1 mg/kg s.c.) depletes at least 90% of norepinephrine and dopamine from their stores in the nerve terminals of the catecholaminergic neurons in the brain stem. Due to the weak performance of the catecholaminergic brain engine, the activation of the cortical neurons remains below the level required for the acquisition of a CAR. The learning deficit caused by tetrabenazine-treatment can be antagonized by the administration of a synthetic CAE substance or an A-type MAO inhibitor, whereas selective inhibition of B-type MAO or inhibition of the reuptake of catecholamines and/or serotonin is ineffective (Knoll et al., 1992).

Setting [1] is: shuttle box, 1 mg/kg tetrabenazine s.c.

On to `CCCN[C@H](CCC)Cc1cc2ccccc2o1` [(−)-BPAP, (2R)-1-(1-benzofuran-2-yl)-N-propylpentane-2-amine], for which the “effect on tetrabenazine-induced learning deficit” value (0.0001 mg/kg (FIG. 4)) was “antagonizing the tetrabenazine-induced learning deficit”. Further, under setting [1], the “dose with the non-specific enhancer effect selected for the longevity study” value was determined as 50 µg/kg, the “optimal dose that exerted the specific enhancer effect” value came out at 0.1 µg/kg and the “very high dose range effective in antagonizing the tetrabenazine-induced learning deficit (MAO-A inhibition)” value was 2000 to 10000 µg/kg.
